# Data from patent US6949571B2, “1,2-dihydropyridine compounds, process for preparation of the same and use thereof” (Eisai Co., Ltd., priority 2000, dated 2005).
# Read-outs that look alike come from different tables or passages of the source.
# Legend:
# [1] = system: convulsions induced by AMPA; assay: Anticonvulsant action induced by AMPA; format: in vivo, mice of ddy strain; conditions: 25 mg/kg orally, male ddy mice; AMPA continuously injected into lateral ventricle 30 minutes or 1 hour after
# Method: A test compound was suspended in a 0.5% methyl cellulose solution or in sesame oil and was orally administered (25 mg/kg) to male mice of ddy strain. After 30 minutes or 1 hour from the oral administration, AMPA was continuously injected ([…]/5 μl/minute/mouse) into lateral ventricle to induce the convulsions. The effect was judged by a time-extending action until the convulsion takes place by a continuous injection of AMPA.
# [2] = system: experimental autoimmune encephalomyelitis; assay: Experimental autoimmune encephalomyelitis model; format: in vivo; conditions: p.o. 5, 10 and 20 mg/kg, 10-16 days post immunisation, female Lewis rats, versus vehicle
# Method: Female Lewis rats (205±10 g) obtained from Charles River, Kent UK, were housed in pairs under environmentally controlled conditions (6:00 a.m.-6:00 p.m. light/dark cycle; 22-24° C.; 45-55% humidity) and allowed free access to food and water. Experimental groups consisted of 9-12 animals. Rats were immunised in each hind foot with 20-50 μl of inoculum containing 50 μg guinea pig myelin basic protein (MBP; final concentration 2 mg/ml), emulsified in Freund's complete adjuvant (CFA; Sigma, UK) containing Mycobacterium tuberculosis H37Ra (final concentration 5.5 mg/ml; Difco Laboratories, UK). Animals were weighed and monitored daily and clinical disease scored as (O) no clinical signs; (1) flaccid tail and weight loss; (2) hind limb hypotonia with further weight loss; (3) complete hind limb paralysis; (4) paraplegia and (5) death. […] During the period of compound administration (10-16 days post immunisation; dpi) animals were scored 15 h after injection of vehicle or compound to avoid any acute effect of treatment on disease score. Compounds were dissolved/suspended in 0.5% methyl cellulose using a hand held Polytron homogeniser (PT1200; 2 min). Rats were dosed p.o. with either methyl cellulose vehicle (2.5 ml/kg) or compound at 5, 10 and 20 mg/kg. Results: the compound of the invention is improved in view of experimental autoimmune encephalomyelitis.
# [3] = Table 1, primary culture of rat embryo cerebral cortex nerve cells, 2 μM AMPA, 1 μM MK-801
# [4] = Table 2, suppression of AMPA-induced calcium influx into nerve cells
# 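Wherever IC50 is given: primary rat embryonic cortical neurons grown on an astrocyte layer in 96-well plates, used after at least 8 to 10 days in culture, Fura2-AM fluorescence ratio at 340/380 nm excitation.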
smiles,measurement,setting,value
"N#Cc1ccccc1-c1cc(-c2ccccn2)cn(-c2ccccc2)c1=O [Example 7, 3-(2-Cyanophenyl)-5-(2-pyridyl)-1-phenyl-1,2-dihydropyridin-2-one]",IC50,AMPA receptor; [3],100 nM
same,anticonvulsant action (time-extending action until the convulsion takes place),[1],significant anticonvulsant action
same,effect on experimental autoimmune encephalomyelitis (clinical disease score),[2],superior effect to the vehicle-administered group
"N#Cc1ccccc1-c1cc(-c2ccccn2)cn(-c2cccnc2)c1=O [Example 32, 3-(2-Cyanophenyl)-5-(2-pyridyl)-1-(3-pyridyl)-1,2-dihydropyridin-2-one]",IC50,AMPA receptor; [3],100 nM
same,anticonvulsant action (time-extending action until the convulsion takes place),[1],significant anticonvulsant action
same,effect on experimental autoimmune encephalomyelitis (clinical disease score),[2],superior effect to the vehicle-administered group
"O=c1c(-c2cccnc2F)cc(-c2ccccn2)cn1-c1ccccc1 [Example 76, 3-(2-Fluoro-3-pyridyl)-5-(2-pyridyl)-1-phenyl-1,2-dihydropyridin-2-one]",IC50,AMPA receptor; [3],100 nM
same,anticonvulsant action (time-extending action until the convulsion takes place),[1],significant anticonvulsant action
same,effect on experimental autoimmune encephalomyelitis (clinical disease score),[2],superior effect to the vehicle-administered group
"O=c1c(-c2cccnc2F)cc(-c2ccccn2)cn1-c1cccnc1 [Example 139, 3-(2-Fluoro-3-pyridyl)-5-(2-pyridyl)-1-(3-pyridyl)-1,2-dihydropyridin-2-one]",IC50,AMPA receptor; [4],300 nM
same,anticonvulsant action (time-extending action until the convulsion takes place),[1],significant anticonvulsant action
same,effect on experimental autoimmune encephalomyelitis (clinical disease score),[2],superior effect to the vehicle-administered group
"N#Cc1ccccc1-c1cc(-c2ncccn2)cn(-c2ccccc2)c1=O [Example 164, 3-(2-Cyanophenyl)-1-phenyl-5-(2-pyrimidinyl)-1,2-dihydropyridin-2-one]",IC50,AMPA receptor; [4],80 nM
same,anticonvulsant action (time-extending action until the convulsion takes place),[1],significant anticonvulsant action
same,effect on experimental autoimmune encephalomyelitis (clinical disease score),[2],superior effect to the vehicle-administered group
"N#Cc1ccccc1-c1cc(-c2ncccn2)cn(-c2cccnc2)c1=O [Example 261, 3-(2-Cyanophenyl)-1-(3-pyridyl)-5-(2-pyrimidinyl)-1,2-dihydropyridin-2-one]",IC50,AMPA receptor; [4],80 nM
same,anticonvulsant action (time-extending action until the convulsion takes place),[1],significant anticonvulsant action
same,effect on experimental autoimmune encephalomyelitis (clinical disease score),[2],superior effect to the vehicle-administered group
"O=c1c(-c2cccnc2F)cc(-c2ncccn2)cn1-c1ccccc1 [Example 262, 3-(2-Fuluoropyridin-3-yl)-1-phenyl-5-(2-pyrimidinyl)-1,2-dihydropyridin-2-one]",IC50,AMPA receptor; [4],300 nM
same,anticonvulsant action (time-extending action until the convulsion takes place),[1],significant anticonvulsant action
same,effect on experimental autoimmune encephalomyelitis (clinical disease score),[2],superior effect to the vehicle-administered group
"N#Cc1ncccc1-c1cc(-c2ncccn2)cn(-c2ccccc2)c1=O [Example 264, 3-(2-Cyanopyridin-3-yl)-1-phenyl-5-(2-pyrimidinyl)-1,2-dihydropyridin-2-one]",IC50,AMPA receptor; [4],50 nM
same,anticonvulsant action (time-extending action until the convulsion takes place),[1],significant anticonvulsant action
same,effect on experimental autoimmune encephalomyelitis (clinical disease score),[2],superior effect to the vehicle-administered group
"N#Cc1ccccc1-c1cc(-c2cccc(N)n2)cn(-c2ccccc2)c1=O [Example 298, 5-(2-Aminopyridin-6-yl)-3-(2-cyanophenyl)-1-phenyl-1,2-dihydropyridin-2-one]",IC50,AMPA receptor; [4],300 nM
same,anticonvulsant action (time-extending action until the convulsion takes place),[1],significant anticonvulsant action
